One series has as its system HMEC1. The series is described as follows: Cell viability assay (MTT), HMEC1. The format is cell-based, Human. The conditions noted are these: MTT, 10% FBS, 6-day treatment, 1% DMSO. As for the experimental part:
(§1) Table 12: 6-day cell viability assay (MTT) in the presence of 10% Fetal Bovine Serum and 1% DMSO, in HMEC1, HCT116, MDA-MB-231, MCF7 and NIH3T3 cell lines. 3 10^3 to 15 10^3 cells were seeded in 48-well plates in growth medium containing 10% FBS, with or without various concentrations of test compounds. Cell cultures were fed every 3 days with the appropriate media. Cell viability was determined on day 6. Data were analyzed and IC50s were calculated from dose-response curves using GraphPad Prism. Results summarized in the tables are mean±SEM of 1 to 8 independent experiments.
(§2) In order to determine a compound's effect on cell viability, microculture tetrazolium assays (MTT) were performed as described by Carmichael et al. (1996) with modifications. Four human tumoral cell lines, namely HCT116 colon adenocarcinoma, H460 lung carcinoma, MCF-7 and MDA-MB-231 breast carcinoma cell lines, DLD1 colorectal adenocarcinoma, HeLa adenocarcinoma, HepG2 hepatocellular carcinoma. 3 immortalized but non tumorigenic cell lines, namely NIH3T3 mouse fibroblasts (American Type Culture Collection) and primary hepatocytes (Biopredic international), cultured according to their recommendations together with Human Microvasculature Endothelial Cell line HMEC1 (National Center for Infectious Diseases). Briefly, cells were seeded in 48-well plates 24 hours before drug addition. Cells were treated with 0 to 200 μM (11 concentrations) of compound solubilized in DMSO, adjusting the final concentration of DMSO to 1% in the well. 16 hours, and three or six days after treatment, 0.5 mg/ml MTT (Sigma) was added to the medium and cells were incubated for 1-5 hours at 37° C. before solubilization of formazan crystals in 100% DMSO. Absorbance was measured using a spectrophotometer at a wavelength of 550 nm. Data was analyzed using the GraphPad Prism software (GraphPad Software, Inc.), and IC50 (dose leading to 50% cell death) was calculated from the dose-response curves.

For the next series, the system named is HCT116. The series is described as follows: Cell viability assay (MTT), HCT116. The series is classed as cell-based, human. The conditions noted are these: 10% FBS, 6-day treatment, 1% DMSO. As for the experimental part: as §1
(§3) Table 13: 6-day cell viability assay (MTT) in the presence of 0.5% Fetal Bovine Serum and 1% DMSO, in HCT116 and MDA-MB-231 cell lines. 7.5 10^4 to 15 10^4 cells were seeded in 48-well plates in growth medium containing 10% FBS, with or without various concentrations of test compounds. Cell cultures were fed every 3 days with the appropriate media. Cell viability was determined on day 6. Data were analyzed and IC50s were calculated from dose-response curves using GraphPad Prism. Results summarized in the tables are mean±SEM of 1 to 2 independent experiments.
(§4) Table 14: 3-day cell viability assay (MTT) in the presence of 10% Fetal Bovine Serum and 1% DMSO, in DLD1, HCT116, MDA-MB-231, MCF7 and HeLa cells. 7.5 10^3 to 1.5 10^4 cells were seeded in 48-well plates in growth medium containing 10% FBS, with or without various concentrations of test compounds. Data were analyzed and IC50s were calculated from dose-response curves using GraphPad Prism. Results summarized in the tables are mean±SEM of 1 to 7 independent experiments.
(§5) Table 15: 16-hour cell viability assay (MTT) in the presence of 10% Fetal Bovine Serum and 1% DMSO, in HCT116, MDA-MB-231, NIH3T3, HepG2 and primary hepatocytes. 5 10^4 to 10 10^4 cells were seeded in 48-well plates in growth medium containing 10% FBS, with or without various concentrations of test compounds. Data were analyzed and IC50s were calculated from dose-reponse curves using GraphPad Prism. Results summarized in the tables are mean±SEM of 1 to 2 independent experiments.
as §2

Another series has as its system MDA-MB-231. The series is described as follows: Cell viability assay (MTT), MDA-MB-231. The format is cell-based, human. The settings on record: Homo sapiens, 10% FBS, 1% DMSO. As for the experimental part: as §1, §3, §4, §5, §2
A further series relates to NIH 3T3. The series can be described thus: Cell viability assay (MTT), NIH 3T3. The format is cell-based, mouse. The conditions noted are these: Mus musculus, NIH3T3, 144 h, 10% FBS, 6-day treatment, 1% DMSO. As for the experimental part: as §1, §5, §2
Setting [1] is: MDA-MB-231, 144 h, 6-day treatment, read-out: IC50 μM, MDA-MB-231.

Read-outs that look alike come from different tables or passages of the source. Bounds are passed on as bounds.

The compound `CS(=O)(=O)N1CCN(Cc2cc(=O)c(OCCCCCSc3ccnc4cc(C(F)(F)F)ccc34)co2)CC1` [EHT 8366, 5-(5-(7-(Trifluoromethyl)quinolin-4-ylthio)pentyloxy)-2-((4-Methylsulfonylpiperazin-1-yl)methyl)-4H-pyran-4-one] came in with a melting point of 66.3 °C.
With `CN1CCN(Cc2cc(=O)c(OCCCCCOc3ncnc4ccccc34)co2)CC1` [EHT 4063, 5-(5-(Quinazolin-4-yloxy)pentyloxy)-2-((4-methylpiperazin-1-yl)methyl)-4H-pyran-4-one], the melting point worked out at 78.2 °C. For the same compound, the IC50 with HMEC1 (Homo sapiens, HMEC-1, 144 h) is ~200 µM. Besides, in the series with HCT116 (Homo sapiens, HCT-116, 144 h), the IC50 was ~200 µM.
`O=c1cc(CCl)occ1OCCCCCSc1ccnc2cc(C(F)(F)F)ccc12` [EHT 1494, 2-Chloromethyl-5-[5-(7-trifluoromethyl-quinolin-4-ylsulfanyl)-pentyloxy]-4H-pyran-4-one] returned a melting point of 38.2 °C.
`O=c1cc(CN2CCCCC2)occ1OCCCCCSc1ccnc2cc(C(F)(F)F)ccc12` [EHT 9317, 5-(5-(7-(Trifluoromethyl)quinolin-4-ylthio)pentyloxy)-2-((piperidin-1-yl)methyl)-4H-pyran-4-one] returned a melting point of 108.9 °C. This compound came in with an IC50 in the series with HMEC1 (Homo sapiens, HMEC-1, 144 h) of 11.7 µM. For the same compound, in the series with HCT116, the concentration for half-maximal inhibition (IC50) stood at 2.3 µM. Moreover, the IC50 in the series on HCT116 (Homo sapiens, HCT-116, 144 h) is < 4 µM.
Compound `O=C(CCCCOc1coc(CN2CCOCC2)cc1=O)Nc1ccnc2cc(C(F)(F)F)ccc12` [EHT 6037, 5-(6-(Morpholinomethyl)-4-oxo-4H-pyran-3-yloxy)-N-(7-(trifluoromethyl)quinolin-4-yl)pentanamide] returned a melting point of 126.8 °C.
Regarding `Cl.Cl.Cl.O=c1cc(CN2CCNCC2)occ1OCCCCCOc1ccnc2cc(Cl)ccc12` [EHT 0872, 5-(5-(7-Chloroquinolin-4-yloxy)pentyloxy)-2-((piperazin-1-yl)methyl)-4H-pyran-4-one trihydrochloride], the melting point worked out at 164.7 °C. Also, 28.4 µM corresponded to half-maximal inhibition in the series on HMEC1 (Homo sapiens, HMEC-1, 144 h) (IC50). Besides, half-maximal inhibition with HCT116 (Homo sapiens, HCT-116, 144 h) (IC50) was put at 9.3 µM.
Regarding `O=c1cc(COC2CCCCO2)occ1OCCCCSc1ccnc2cc(C(F)(F)F)ccc12` (centres unmarked) [EHT 4745, 2-(Tetrahydro-pyran-2-yloxymethyl)-5-[4-(7-trifluoromethyl-quinolin-4-ylsulfanyl)-butoxy]-4H-pyran-4-one], the melting point was 97.3 °C (dec.). The IC50 in the series on HMEC1 (Homo sapiens, HMEC-1, 144 h) is < 10 µM. Moreover, in the series with HMEC1, 9.8 µM corresponded to half-maximal inhibition (IC50). Further, in the series with HCT116 (Homo sapiens, HCT-116, 144 h), the IC50 is 4.1 µM.
`O=c1cc(CN2CCOCC2)occ1OCc1ccccc1CSc1ccnc2cc(C(F)(F)F)ccc12` [EHT 9069, 5-((2-((7-(Trifluoromethyl)quinolin-4-ylthio)methyl)phenyl)methoxy)-2-(morpholinomethyl)-4H-pyran-4-one] had a melting point of 71.6 °C. Moreover, in the series on HMEC1 (Homo sapiens, HMEC-1, 144 h), the IC50 came out at 34.8 µM. The IC50 in the series on HCT116 (Homo sapiens, HCT-116, 144 h) worked out at 15.5 µM. The IC50 with MDA-MB-231 (setting [1]) stood at 13500 nM. This compound displayed an IC50 in the series on NIH 3T3 of 41.3 µM.
On to `CC(C)(C)OC(=O)N1CCN(Cc2cc(=O)c(OCCCCCOc3ccnc4cc(Cl)ccc34)co2)CC1` [EHT 2580, tert-Butyl 4-((5-(5-(7-chloroquinolin-4-yloxy)pentyloxy)-4-oxo-4H-pyran-2-yl)methyl)piperazine-1-carboxylate], for which the melting point amounted to 130.2 °C.
With `O=c1cc(CF)occ1OCCCCCSc1ccnc2cc(C(F)(F)F)ccc12` [EHT 8817, 5-(5-(7-(Trifluoromethyl)quinolin-4-ylthio)pentyloxy)-2-(fluoromethyl)-4H-pyran-4-one], the melting point was determined as 107 °C. Moreover, in the series on HMEC1 (Homo sapiens, HMEC-1, 144 h), the IC50 stood at 41 µM. In the series on HCT116 (Homo sapiens, HCT-116, 144 h), this compound gave an IC50 of 12.1 µM.
For the compound `CC(=O)O[C@H]1C(=O)[C@@]2(C)[C@H]([C@H](OC(=O)c3ccccc3)[C@]3(O)C[C@H](OC(=O)[C@H](O)[C@@H](NC(=O)c4ccccc4)c4ccccc4)C(C)=C1C3(C)C)[C@]1(OC(C)=O)CO[C@@H]1C[C@@H]2O` [Taxol, Paclitaxel, reference compound], the IC50 is 0.0029 µM with HMEC1 (Homo sapiens, HMEC-1, 144 h); 0.0055 µM in the series on HCT116 (Homo sapiens, HCT-116, 144 h); 0.00425 nM with MDA-MB-231 (MDA-MB-231, 72 h, 3-day treatment, read-out: IC50, MDA-MB-231 (row labelled Taxol (nM))); 3.6 nM in the series on MDA-MB-231 (setting [1]); ~0.05 µM in the series on NIH 3T3.
On to `O=c1cc(COC2CCCCO2)occ1OCCCCCCSc1ccnc2cc(C(F)(F)F)ccc12` (centres unmarked) [EHT 6271, 2-(Tetrahydro-pyran-2-yloxymethyl)-5-[6-(7-trifluoromethyl-quinolin-4-ylsulfanyl)-hexyloxy]-4H-pyran-4-one], for which the melting point amounted to 67.8 °C. Further, the IC50 in the series with HMEC1 (Homo sapiens, HMEC-1, 144 h) is < 10 µM. The compound also displayed a half-inhibitory concentration (IC50) in the series on HMEC1 of 9 µM.
For `O=c1cc(COC2CCCCO2)occ1OCCCCCCCCSc1ccnc2cc(C(F)(F)F)ccc12` (centres unmarked) [EHT 1006, 5-(8-(7-(Trifluoromethyl)quinolin-4-ylthio)octyloxy)-2-((tetrahydro-2H-pyran-2-yloxy)methyl)-4H-pyran-4-one] the same measures were 66.1 °C, < 10 µM and 9.5 µM.
In turn, `O=c1cc(CN2CCOCC2)occ1OCCOc1ccnc2cc(C(F)(F)F)ccc12` [EHT 6892, 5-(2-(7-(trifluoromethyl)quinolin-4-yloxy)ethoxy)-2-(morpholinomethyl)-4H-pyran-4-one] returned a melting point of 125.6 °C. In the series on HCT116 (Homo sapiens, HCT-116, 144 h), this compound came in with an IC50 of 101 µM.
In the case of `CC(=O)N1CCN(Cc2cc(=O)c(OCCCCCSc3ccnc4cc(C(F)(F)F)ccc34)co2)CC1` [EHT 3980, 5-(5-(7-(Trifluoromethyl)quinolin-4-ylthio)pentyloxy)-2-((4-acetylpiperazin-1-yl)methyl)-4H-pyran-4-one], the melting point came out at 99.5 °C. In the series on HMEC1 (Homo sapiens, HMEC-1, 144 h), this compound gave an IC50 of 38.5 µM. The IC50 in the series on HCT116 turned out to be 2.3 µM. In addition, the half-maximal inhibitory concentration (IC50) with HCT116 (Homo sapiens, HCT-116, 144 h) is < 4 µM.
`CCN(CC)Cc1cc(=O)c(OCCCCCSc2ccnc3cc(C(F)(F)F)ccc23)co1` [EHT 7370, 2-((Diethylamino)methyl)-5-(5-(7-(trifluoromethyl)quinolin-4-ylthio)pentyloxy)-4H-pyran-4-one] returned a melting point of 71.2 °C. In addition, the IC50 in the series with HMEC1 (Homo sapiens, HMEC-1, 144 h) is 12.1 µM. Further, the 50% inhibitory concentration (IC50) in the series with HCT116 (Homo sapiens, HCT-116, 144 h) was found to be 4.4 µM.
With `O=c1cc(CO)occ1OCCCCCSc1ccnc2cc(C(F)(F)F)ccc12` [EHT 5909, 2-Hydroxymethyl-5-[5-(7-trifluoromethyl-quinolin-4-ylsulfanyl)-pentyloxy]-4H-pyran-4-one], the melting point is 133.2 °C (dec.).
Take `COCOCc1cc(=O)c(OCCCCCSc2ccnc3cc(C(F)(F)F)ccc23)co1` [EHT 2168, 2-Methoxymethoxymethyl-5-[5-(7-trifluoromethyl-quinolin-4-ylsulfanyl)-pentyloxy]-4H-pyran-4-one]: the melting point was 122.1 °C (dec.). The same compound had an IC50 in the series with HMEC1 (Homo sapiens, HMEC-1, 144 h) of 19.3 µM. Besides, the IC50 with HCT116 (Homo sapiens, HCT-116, 144 h) was determined as 6 µM.

Broadly, the melting point is the temperature of the solid-liquid transition. As a reminder, the IC50 is the midpoint of a concentration-inhibition curve.

(Values after US7514432B2, “Compounds and methods of treating cell proliferative diseases, retinopathies and arthritis” (Exonhit Therapeutics SA, priority 2003, dated 2009).)
